Columns and labels:
SMARCA2 = SMARCA2 (Homo sapiens, UniProt P51531); test: HiBit assay in engineered HT1080 CRISPR knock-in cell, 6 hrs (B series), SMARCA2; assay type: cell-based; conditions: 6 hrs incubation; for DC50: HT1080 CRISPR knock-in cells, read-out: SMARC A2 HT1080 HiBit DC50; for Dmax: HT-1080, HT1080 CRISPR knock-in cells, read-out: SMARC A2 HT1080 HiBit Dmax (%)
In short: (§1)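 Using a 6 hr treatment window at 37° C and 5% CO2, tagged HT1080 knock-in cells were exposed to test compounds with DMSO vehicle held at 0.1%. Signal came from lytic LgBiT/substrate reagent added after incubation, with control wells lacking LgBiT, and was read as luminescence.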

SMARCA4 = SMARCA4 (Homo sapiens, UniProt P51532); test: HiBit assay in engineered HT1080 CRISPR knock-in cell, 6 hrs (B series), SMARCA4; assay type: cell-based; conditions: 6 hrs incubation; for DC50: HT1080 CRISPR knock-in cells, read-out: SMARC A4 HT1080 HiBit DC50; for Dmax: HT-1080, HT1080 CRISPR knock-in cells, read-out: SMARC A4 HT1080 HiBit Dmax(%)
SMARCA4, sequence (P51532 whole entry): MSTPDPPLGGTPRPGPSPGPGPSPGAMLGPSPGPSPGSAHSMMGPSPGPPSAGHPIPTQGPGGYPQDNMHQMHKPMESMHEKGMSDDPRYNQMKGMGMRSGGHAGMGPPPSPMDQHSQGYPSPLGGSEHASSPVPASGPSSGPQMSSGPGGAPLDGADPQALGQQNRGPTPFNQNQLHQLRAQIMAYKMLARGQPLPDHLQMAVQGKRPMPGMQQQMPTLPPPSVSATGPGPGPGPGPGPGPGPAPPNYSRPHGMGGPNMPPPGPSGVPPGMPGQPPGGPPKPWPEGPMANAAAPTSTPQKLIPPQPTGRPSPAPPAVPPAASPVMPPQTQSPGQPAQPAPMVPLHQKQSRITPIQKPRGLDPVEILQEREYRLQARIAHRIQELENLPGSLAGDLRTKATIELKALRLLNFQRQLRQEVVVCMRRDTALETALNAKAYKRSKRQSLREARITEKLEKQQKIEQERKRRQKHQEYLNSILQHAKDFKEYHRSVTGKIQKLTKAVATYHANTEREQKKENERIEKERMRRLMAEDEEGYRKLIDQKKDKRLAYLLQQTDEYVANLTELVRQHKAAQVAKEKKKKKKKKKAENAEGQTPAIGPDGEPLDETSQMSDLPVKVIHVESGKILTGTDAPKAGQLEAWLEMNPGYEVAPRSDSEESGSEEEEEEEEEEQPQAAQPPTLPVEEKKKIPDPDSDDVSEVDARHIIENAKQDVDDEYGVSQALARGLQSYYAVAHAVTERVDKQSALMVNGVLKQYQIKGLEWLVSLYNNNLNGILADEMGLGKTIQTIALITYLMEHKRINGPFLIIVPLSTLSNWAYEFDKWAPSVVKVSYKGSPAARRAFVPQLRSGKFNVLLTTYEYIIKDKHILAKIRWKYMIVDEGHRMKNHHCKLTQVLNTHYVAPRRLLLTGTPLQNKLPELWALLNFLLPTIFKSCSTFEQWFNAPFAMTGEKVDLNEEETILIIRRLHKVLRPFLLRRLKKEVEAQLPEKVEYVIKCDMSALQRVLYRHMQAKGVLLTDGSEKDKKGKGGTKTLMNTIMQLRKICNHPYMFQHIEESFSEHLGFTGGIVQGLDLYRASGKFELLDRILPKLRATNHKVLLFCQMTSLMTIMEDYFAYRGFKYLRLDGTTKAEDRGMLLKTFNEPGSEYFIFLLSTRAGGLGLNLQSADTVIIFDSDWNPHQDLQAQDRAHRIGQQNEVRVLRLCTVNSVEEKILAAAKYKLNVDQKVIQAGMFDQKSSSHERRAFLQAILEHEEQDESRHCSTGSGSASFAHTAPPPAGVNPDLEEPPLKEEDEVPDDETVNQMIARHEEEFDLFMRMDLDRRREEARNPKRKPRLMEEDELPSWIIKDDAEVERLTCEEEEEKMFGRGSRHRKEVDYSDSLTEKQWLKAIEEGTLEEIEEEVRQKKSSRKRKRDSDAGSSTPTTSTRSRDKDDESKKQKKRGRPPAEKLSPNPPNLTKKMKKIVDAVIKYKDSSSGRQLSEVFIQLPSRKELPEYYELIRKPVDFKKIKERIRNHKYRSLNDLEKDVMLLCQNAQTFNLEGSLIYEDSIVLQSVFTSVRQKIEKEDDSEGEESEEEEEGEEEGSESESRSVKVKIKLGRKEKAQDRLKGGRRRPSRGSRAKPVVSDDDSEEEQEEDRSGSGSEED
In short: as §1

SMARCA2, sequence (P51531 whole entry): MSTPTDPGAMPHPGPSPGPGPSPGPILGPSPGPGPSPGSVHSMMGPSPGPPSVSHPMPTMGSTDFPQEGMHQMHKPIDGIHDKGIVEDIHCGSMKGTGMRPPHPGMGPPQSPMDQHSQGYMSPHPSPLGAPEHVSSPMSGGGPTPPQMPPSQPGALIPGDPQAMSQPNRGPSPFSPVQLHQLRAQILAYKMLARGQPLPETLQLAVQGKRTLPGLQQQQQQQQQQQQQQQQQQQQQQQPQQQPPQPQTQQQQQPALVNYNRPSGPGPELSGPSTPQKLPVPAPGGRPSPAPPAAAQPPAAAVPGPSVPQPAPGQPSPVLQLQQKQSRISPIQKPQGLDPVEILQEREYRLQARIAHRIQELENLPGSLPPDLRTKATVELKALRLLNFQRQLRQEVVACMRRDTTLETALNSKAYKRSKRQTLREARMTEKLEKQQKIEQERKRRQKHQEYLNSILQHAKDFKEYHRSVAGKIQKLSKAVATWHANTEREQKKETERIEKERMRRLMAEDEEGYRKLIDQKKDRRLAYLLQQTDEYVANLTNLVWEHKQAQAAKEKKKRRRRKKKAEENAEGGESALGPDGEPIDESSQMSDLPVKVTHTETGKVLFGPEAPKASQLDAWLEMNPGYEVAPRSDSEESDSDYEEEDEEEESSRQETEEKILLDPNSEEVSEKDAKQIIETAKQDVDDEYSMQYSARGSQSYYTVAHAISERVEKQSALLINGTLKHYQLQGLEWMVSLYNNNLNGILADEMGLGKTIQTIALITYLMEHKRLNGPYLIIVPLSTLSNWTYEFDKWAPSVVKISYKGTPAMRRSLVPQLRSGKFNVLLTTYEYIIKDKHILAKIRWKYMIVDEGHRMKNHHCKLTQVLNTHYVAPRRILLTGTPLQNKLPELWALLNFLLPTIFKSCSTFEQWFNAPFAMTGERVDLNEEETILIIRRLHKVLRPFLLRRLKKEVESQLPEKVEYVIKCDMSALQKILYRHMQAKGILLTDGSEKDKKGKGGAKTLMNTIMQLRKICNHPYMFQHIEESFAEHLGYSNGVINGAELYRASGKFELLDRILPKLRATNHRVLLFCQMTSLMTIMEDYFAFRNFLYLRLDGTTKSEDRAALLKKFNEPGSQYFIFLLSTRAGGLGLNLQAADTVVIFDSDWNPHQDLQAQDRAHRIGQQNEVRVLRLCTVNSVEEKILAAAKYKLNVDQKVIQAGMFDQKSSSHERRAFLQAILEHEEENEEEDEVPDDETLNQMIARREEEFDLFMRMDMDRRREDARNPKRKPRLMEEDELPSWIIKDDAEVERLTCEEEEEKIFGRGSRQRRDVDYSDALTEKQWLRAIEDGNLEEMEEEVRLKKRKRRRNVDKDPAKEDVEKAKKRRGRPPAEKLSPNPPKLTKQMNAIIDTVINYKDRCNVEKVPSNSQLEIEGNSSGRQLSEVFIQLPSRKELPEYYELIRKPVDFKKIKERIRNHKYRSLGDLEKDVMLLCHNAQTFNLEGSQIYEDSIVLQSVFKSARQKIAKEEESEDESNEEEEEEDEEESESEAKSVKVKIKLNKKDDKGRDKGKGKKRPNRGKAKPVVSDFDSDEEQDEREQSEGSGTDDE

Row | DC50 (SMARCA2) [nM] | Dmax (SMARCA2) [%] | DC50 (SMARCA4) [nM] | Dmax (SMARCA4) [%] | Compound
1 | < 100 | > 90 | 100 to 500 | 70 to 90 | Cc1ncsc1-c1ccc([C@H](CN2CCOCC2)NC(=O)[C@@H]2C[C@@H](O)CN2C(=O)[C@@H](n2cc([C@H]3CC[C@H](CN4CCC(c5ccc6c(c5)-n5c(nc(=O)c7c(Br)cccc75)C6(C)C)CC4)CC3)nn2)C(C)(C)C)cc1 [Compound B105, (2S,4R)-1-((S)-2-(4-((1r,4S)-4-((4-(4-bromo-7,7-dimethyl-5-oxo-5,7-dihydroindolo[1,2-a]quinazolin-10-yl)piperidin-1-yl)methyl)cyclohexyl)-1H-1,2,3-triazol-1-yl)-3,3-dimethylbutanoyl)-4-hydroxy-N—((R)-1-(4-(4-methylthiazol-5-yl)phenyl)-2-morpholinoethyl)pyrrolidine-2-carboxamide]
2 | < 100 | > 90 | < 100 | > 90 | Cc1ncsc1-c1ccc([C@H](CN2CCOCC2)NC(=O)[C@@H]2C[C@@H](O)CN2C(=O)[C@H](C(C)C)n2cc([C@H]3CC[C@H](CN4CCC(c5ccc6c(c5)-n5c(nc(=O)c7c(Br)cccc75)C65CCCCC5)CC4)CC3)nn2)cc1 [Compound B106, (2S,4R)-1-((S)-2-(4-((1r,4S)-4-((4-(4′-bromo-5′-oxo-5′H-spiro[cyclohexane-1,7′-indolo[1,2-a]quinazolin]-10′-yl)piperidin-1-yl)methyl)cyclohexyl)-1H-1,2,3-triazol-1-yl)-3-methylbutanoyl)-4-hydroxy-N-((R)-1-(4-(4-methylthiazol-5-yl)phenyl)-2-morpholinoethyl)pyrrolidine-2-carboxamide]
3 | < 100 | > 90 | < 100 | > 90 | Cc1ncsc1-c1ccc([C@H](C)NC(=O)[C@@H]2C[C@@H](O)CN2C(=O)[C@H](C(C)C)n2cc([C@H]3CC[C@H](CN4CCC(c5cccc6c5C(C)(C)c5nc(=O)c7c(Cl)cccc7n5-6)CC4)CC3)nn2)cc1 [Compound B107, (2S,4R)-1-((S)-2-(4-((1r,4S)-4-((4-(4-chloro-7,7-dimethyl-5-oxo-5,7-dihydroindolo[1,2-a]quinazolin-8-yl)piperidin-1-yl)methyl)cyclohexyl)-1H-1,2,3-triazol-1-yl)-3-methylbutanoyl)-4-hydroxy-N-((S)-1-(4-(4-methylthiazol-5-yl)phenyl)ethyl)pyrrolidine-2-carboxamide]
4 | 100 to 500 | > 90 | 100 to 500 | 50 to 69 | C[C@H](NC(=O)[C@@H]1C[C@@H](O)CN1C(=O)[C@@H](n1cc(C2CCC(CN3CCC(c4ccc5c(c4)-n4c(nc(=O)c6c(Cl)cccc64)C54CCCCC4)CC3)CC2)nn1)C(C)(C)C)c1ccc(-c2scnc2CCCN2CCOCC2)cc1 (stereo partly drawn) [Compound B108, (2S,4R)-1-((S)-2-(4-((11,4S)-4-((4-(4′-chloro-5′-oxo-5′H-spiro[cyclohexane-1,7′-indolo[1,2-a]quinazolin]-10′-yl)piperidin-1-yl)methyl)cyclohexyl)-1H-1,2,3-triazol-1-yl)-3,3-dimethylbutanoyl)-4-hydroxy-N-((S)-1-(4-(4-(3-morpholinopropyl)thiazol-5-yl)phenyl)ethyl)pyrrolidine-2-carboxamide]
5 | < 100 | > 90 | 100 to 500 | 50 to 69 | Cc1ncsc1-c1ccc([C@H](CN2CCOCC2)NC(=O)[C@@H]2C[C@@H](O)CN2C(=O)[C@H](c2cc(N3CCC(c4ccc5c(c4)C(C)(C)c4nc(=O)c6c(Cl)cccc6n4-5)CC3)no2)C(C)C)cc1 [Compound B109, (2S,4R)-1-(2-(3-(4-(4-chloro-7,7-dimethyl-5-oxo-5,7-dihydroindolo[1,2-a]quinazolin-9-yl)piperidin-1-yl)isoxazol-5-yl)-3-methylbutanoyl)-4-hydroxy-N—((R)-1-(4-(4-methylthiazol-5-yl)phenyl)-2-morpholinoethyl)pyrrolidine-2-carboxamide]
6 | < 100 | > 90 | < 100 | 70 to 90 | Cc1ncsc1-c1ccc([C@H](CN2CCOCC2)NC(=O)[C@@H]2C[C@@H](O)CN2C(=O)[C@@H](c2cc(N3CCC(c4ccc5c(c4)C(C)(C)c4nc(=O)c6c(Cl)cccc6n4-5)CC3)no2)C(C)C)cc1 [Compound B110, (2S,4R)-1-(2-(3-(4-(4-chloro-7,7-dimethyl-5-oxo-5,7-dihydroindolo[1,2-a]quinazolin-9-yl)piperidin-1-yl)isoxazol-5-yl)-3-methylbutanoyl)-4-hydroxy-N—((R)-1-(4-(4-methylthiazol-5-yl)phenyl)-2-morpholinoethyl)pyrrolidine-2-carboxamide]
7 | < 100 | > 90 | < 100 | 50 to 69 | Cc1ncsc1-c1ccc([C@H](C)NC(=O)[C@@H]2C[C@@H](O)CN2C(=O)[C@@H](c2cc(N3CCC(CN4CCN(c5ccc6c(c5)-n5c(nc(=O)c7c(Cl)cccc75)C6(C)C)CC4)CC3)no2)C(C)C)cc1 [Compound B111, (2S,4R)-1-((R)-2-(3-(4-((4-(4-chloro-7,7-dimethyl-5-oxo-5,7-dihydroindolo[1,2-a]quinazolin-10-yl)piperazin-1-yl)methyl)piperidin-1-yl)isoxazol-5-yl)-3-methylbutanoyl)-4-hydroxy-N-((S)-1-(4-(4-methylthiazol-5-yl)phenyl)ethyl)pyrrolidine-2-carboxamide]
8 | 100 to 500 | > 90 | 501 to 1000 | < 50 | Cc1ncsc1-c1ccc(C2(NC(=O)[C@@H]3C[C@@H](O)CN3C(=O)[C@@H](n3cc([C@H]4CC[C@H](CN5CCC(c6ccc7c(c6)-n6c(nc(=O)c8c(Cl)cccc86)C7(C)C)CC5)CC4)nn3)C(C)(C)C)CNC2)cc1 [Compound B113, (2S,4R)-1-((S)-2-(4-((1r,4S)-4-((4-(4-chloro-7,7-dimethyl-5-oxo-5,7-dihydroindolo[1,2-a]quinazolin-10-yl)piperidin-1-yl)methyl)cyclohexyl)-1H-1,2,3-triazol-1-yl)-3,3-dimethylbutanoyl)-4-hydroxy-N-(3-(4-(4-methylthiazol-5-yl)phenyl)azetidin-3-yl)pyrrolidine-2-carboxamide]
9 | < 100 | 70 to 90 | 100 to 500 | < 50 | Cc1ncsc1-c1ccc([C@H](C)NC(=O)[C@@H]2C[C@@H](O)CN2C(=O)[C@H](C(C)C)n2cc(C3CCC(N4CCC(c5cccc6c5C(C)(C)c5nc(=O)c7c(Cl)cccc7n5-6)CC4)CC3)nn2)cc1 (stereo partly drawn) [Compound B114, (2S,4R)-1-((S)-2-(4-(4-(4-(4-chloro-7,7-dimethyl-5-oxo-5,7-dihydroindolo[1,2-a]quinazolin-8-yl)piperidin-1-yl)cyclohexyl)-1H-1,2,3-triazol-1-yl)-3-methylbutanoyl)-4-hydroxy-N-((S)-1-(4-(4-methylthiazol-5-yl)phenyl)ethyl)pyrrolidine-2-carboxamide]
10 | < 100 | > 90 | < 100 | 70 to 90 | Cc1ncsc1-c1ccc([C@H](CN2CCOCC2)NC(=O)[C@@H]2C[C@@H](O)CN2C(=O)C(c2cc(N3CCC(CN4CCC(c5ccc6c(c5)-n5c(nc(=O)c7c(Cl)cccc75)C6(C)C)CC4)CC3)no2)C(C)C)cc1 (stereo partly drawn) [Compound B115, (2S,4R)-1-(2-(3-(4-((4-(4-chloro-7,7-dimethyl-5-oxo-5,7-dihydroindolo[1,2-a]quinazolin-10-yl)piperidin-1-yl)methyl)piperidin-1-yl)isoxazol-5-yl)-3-methylbutanoyl)-4-hydroxy-N-((R)-1-(4-(4-methylthiazol-5-yl)phenyl)-2-morpholinoethyl)pyrrolidine-2-carboxamide]
11 | < 100 | 70 to 90 | > 1000 | < 50 | Cc1ncsc1-c1ccc([C@H](C)NC(=O)[C@@H]2C[C@@H](O)CN2C(=O)[C@@H](c2cc(OCCc3cccc4c3C(C)(C)c3nc(=O)c5c(Cl)cccc5n3-4)no2)C(C)C)cc1 [Compound B116, (2S,4R)-1-((R)-2-(3-(2-(4-chloro-7,7-dimethyl-5-oxo-5,7-dihydroindolo[1,2-a]quinazolin-8-yl)ethoxy)isoxazol-5-yl)-3-methylbutanoyl)-4-hydroxy-N—((S)-1-(4-(4-methylthiazol-5-yl)phenyl)ethyl)pyrrolidine-2-carboxamide]
12 | < 100 | > 90 | 100 to 500 | 50 to 69 | C[C@H](NC(=O)[C@@H]1C[C@@H](O)CN1C(=O)[C@@H](n1cc([C@H]2CC[C@H](CN3CCC(c4ccc5c(c4)-n4c(nc(=O)c6c(Cl)cccc64)C5(C)C)CC3)CC2)nn1)C(C)(C)C)c1ccc(-c2scnc2Cl)cc1 [Compound B117, (2S,4R)-1-((S)-2-(4-((1r,4S)-4-((4-(4-chloro-7,7-dimethyl-5-oxo-5,7-dihydroindolo[1,2-a]quinazolin-10-yl)piperidin-1-yl)methyl)cyclohexyl)-1H-1,2,3-triazol-1-yl)-3,3-dimethylbutanoyl)-N-((S)-1-(4-(4-chlorothiazol-5-yl)phenyl)ethyl)-4-hydroxypyrrolidine-2-carboxamide]
